Reference: ChEMBL document CHEMBL1201862, “PubChem BioAssay data set” (2004)
Activity calls are given as the source filed them.

Key:
[1] = MC4R antagonists, dose response, counter-screen for LGR2 antagonist project, cell-based, plate reader, cherry pick (AID 743444); assay type: functional;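 also: transfected HEK 293 cells stimulated with alpha-MSH peptide; potency of inhibitors of the alpha-MSH evoked signal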
[2] = Luminescence-based counterscreen assay for KLF5 inhibitors: dose response cell-based high throughput screening assay to identify cytotoxic compounds using the IEC-6 intestinal epithelial cell line. [Related pubchem assays: 1700 (Primary screen.), 1834 (Confirmation screen.), 1858 (Summary AID.), 1905 (Counterscreen.)]; assay type: functional
[3] = HepG2 cell cytotoxicity, dose response, cytotoxicity control, plate reader, cherry-pick, antagonist series (AID 743416); assay type: functional, cell-based
[4] = A549 cell cytotoxicity, dose response, cytotoxicity control, plate reader, cherry-pick, antagonist series (AID 743412); assay type: functional, cell-based
[5] = LGR2 antagonists, dose response, cell-based, HEK293, CRE-luciferase reporter, cherry pick, set 2 (AID 743343); assay type: functional;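 also: transfected cells were stimulated with diluted bursicon conditioned medium after compound addition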
[6] = biological target: T1, Oxysterols receptor LXR-beta (Homo sapiens, UniProt P55055); assay type: functional, cell-based;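 also: Cell-based luminescence dose-response assay of agonist activity at LXR, run as a confirmatory counterscreen to a daf-12 agonist screen; HEK293 cells with Gal4-LXR fusion and GAL4-driven luciferase reporter; agonist potency from rising luciferase signal of a Gal4-LXR reporter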
T1 sequence (P55055 whole entry): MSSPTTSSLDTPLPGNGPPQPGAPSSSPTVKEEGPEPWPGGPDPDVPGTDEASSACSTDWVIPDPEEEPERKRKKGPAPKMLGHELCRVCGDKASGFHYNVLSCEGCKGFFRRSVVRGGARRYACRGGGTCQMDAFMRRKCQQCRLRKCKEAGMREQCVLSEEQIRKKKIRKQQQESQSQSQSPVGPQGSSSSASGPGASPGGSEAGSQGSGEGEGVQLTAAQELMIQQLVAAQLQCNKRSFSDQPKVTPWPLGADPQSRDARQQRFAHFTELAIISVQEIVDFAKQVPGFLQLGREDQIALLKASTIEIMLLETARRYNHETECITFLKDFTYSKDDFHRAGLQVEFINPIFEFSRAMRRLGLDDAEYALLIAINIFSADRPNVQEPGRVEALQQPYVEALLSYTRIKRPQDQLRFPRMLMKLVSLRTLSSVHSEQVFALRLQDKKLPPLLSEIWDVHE

Estrogen receptor = biological target: T2, Estrogen receptor (Homo sapiens, UniProt P03372); test: potentiators of ERα–SRC-1 coactivator binding, dose response, biochemical, TR-FRET, ERα LBD (AID 737)
T2 sequence (P03372 whole entry): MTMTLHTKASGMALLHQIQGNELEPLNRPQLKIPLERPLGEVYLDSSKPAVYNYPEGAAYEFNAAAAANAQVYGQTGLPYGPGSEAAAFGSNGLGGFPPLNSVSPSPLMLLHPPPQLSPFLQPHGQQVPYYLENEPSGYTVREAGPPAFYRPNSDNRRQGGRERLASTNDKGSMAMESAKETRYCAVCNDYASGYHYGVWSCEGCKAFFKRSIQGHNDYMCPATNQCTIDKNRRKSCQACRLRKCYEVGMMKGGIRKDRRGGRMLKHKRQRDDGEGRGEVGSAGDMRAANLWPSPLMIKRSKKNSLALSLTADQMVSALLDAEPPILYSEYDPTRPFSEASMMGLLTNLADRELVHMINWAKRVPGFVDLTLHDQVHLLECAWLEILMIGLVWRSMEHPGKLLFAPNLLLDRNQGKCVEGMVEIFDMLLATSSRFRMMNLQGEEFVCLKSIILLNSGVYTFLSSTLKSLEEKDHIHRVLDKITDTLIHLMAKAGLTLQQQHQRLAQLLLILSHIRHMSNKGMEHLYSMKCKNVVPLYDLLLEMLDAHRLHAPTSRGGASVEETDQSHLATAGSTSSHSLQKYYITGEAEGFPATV

[7] = Luminescence Cell-Based Dose Response HTS to Identify Inhibitors of 5'UTR Stem-Loop Driven Prion Protein mRNA Translation in H4 Neuroglioblastoma Cells. [Related pubchem assays: 1827 (Project Summary), 1813 (Primary HTS)]; assay type: functional
[8] = biological target: T3, Replicative DNA helicase DnaB (Mycobacterium tuberculosis, UniProt P9WMR3); test: DnaB intein splicing inhibitors, dose response, biochemical, cell-free fluorescence (AID 449749); assay type: functional
T3 sequence (P9WMR3 whole entry): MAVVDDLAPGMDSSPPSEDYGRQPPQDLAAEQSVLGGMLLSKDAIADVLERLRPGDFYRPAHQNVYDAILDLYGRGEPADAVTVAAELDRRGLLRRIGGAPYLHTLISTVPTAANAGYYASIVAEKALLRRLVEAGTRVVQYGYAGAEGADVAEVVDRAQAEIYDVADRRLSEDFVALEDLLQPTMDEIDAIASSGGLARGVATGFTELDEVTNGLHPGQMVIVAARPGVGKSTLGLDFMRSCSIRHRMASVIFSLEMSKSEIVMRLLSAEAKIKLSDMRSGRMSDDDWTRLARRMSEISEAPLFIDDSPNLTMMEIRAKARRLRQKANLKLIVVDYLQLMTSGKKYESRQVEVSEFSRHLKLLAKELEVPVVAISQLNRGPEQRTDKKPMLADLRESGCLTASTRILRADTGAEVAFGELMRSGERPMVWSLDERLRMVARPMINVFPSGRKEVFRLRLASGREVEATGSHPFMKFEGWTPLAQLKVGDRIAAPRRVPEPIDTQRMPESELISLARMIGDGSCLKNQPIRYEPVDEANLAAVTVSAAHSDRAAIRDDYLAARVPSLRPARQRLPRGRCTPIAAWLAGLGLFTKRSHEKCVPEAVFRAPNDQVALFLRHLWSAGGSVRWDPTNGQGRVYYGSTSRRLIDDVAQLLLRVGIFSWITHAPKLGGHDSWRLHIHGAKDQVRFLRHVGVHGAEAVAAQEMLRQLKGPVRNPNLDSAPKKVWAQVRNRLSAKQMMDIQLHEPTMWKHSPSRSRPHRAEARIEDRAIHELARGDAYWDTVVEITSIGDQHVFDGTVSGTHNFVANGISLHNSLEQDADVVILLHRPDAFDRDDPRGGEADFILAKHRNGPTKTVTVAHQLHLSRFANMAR

[9] = Luminescence-based dose response cell-based high throughput screening assay for cytotoxic compounds using the IEC-6 intestinal epithelial cell line. [Related pubchem assays: 1858 (Summary AID.), 1825 (Counterscreen.), 1907 (Confirmation screen.)]; assay type: functional
[10] = biological target: T4, Heat shock factor protein 1 (Mus musculus, UniProt P38532); test: inhibition of MG132-induced HSE-luciferase signal, confirmation, cell-based, NIH3T3, luminescence, dose retest (AID 2382); assay type: functional;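 also: NIH3T3 fibroblasts with HSF1-driven luciferase reporter stressed by proteasome inhibitor MG132; luminescence from HSF1-driven luciferase expression after 8 hours of MG132 stress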
T4 sequence (P38532 whole entry): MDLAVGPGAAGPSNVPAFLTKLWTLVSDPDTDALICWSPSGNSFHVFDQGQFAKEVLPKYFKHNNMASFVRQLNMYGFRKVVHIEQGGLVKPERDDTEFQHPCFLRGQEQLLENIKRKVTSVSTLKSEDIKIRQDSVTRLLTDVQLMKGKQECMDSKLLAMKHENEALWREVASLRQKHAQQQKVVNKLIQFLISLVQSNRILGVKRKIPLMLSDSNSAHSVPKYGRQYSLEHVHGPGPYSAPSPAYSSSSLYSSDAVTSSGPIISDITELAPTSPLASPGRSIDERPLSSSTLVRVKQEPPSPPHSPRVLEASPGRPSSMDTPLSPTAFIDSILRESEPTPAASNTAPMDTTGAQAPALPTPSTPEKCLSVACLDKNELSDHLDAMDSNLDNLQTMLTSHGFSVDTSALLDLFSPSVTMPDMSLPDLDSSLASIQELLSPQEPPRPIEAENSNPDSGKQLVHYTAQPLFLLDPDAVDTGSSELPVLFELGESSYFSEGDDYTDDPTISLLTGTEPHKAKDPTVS

Protein RecA = biological target: T5, Protein RecA (Mycobacterium tuberculosis, UniProt P9WHJ3); test: Fluorescence Cell-Free Homogeneous Dose Retest to Identify Inhibitors of RecA-Intein Splicing Activity. [Related pubchem assays (depositor defined):AID2097, AID2223, AID489010, AID492950]; assay type: functional
T5 sequence (P9WHJ3 whole entry): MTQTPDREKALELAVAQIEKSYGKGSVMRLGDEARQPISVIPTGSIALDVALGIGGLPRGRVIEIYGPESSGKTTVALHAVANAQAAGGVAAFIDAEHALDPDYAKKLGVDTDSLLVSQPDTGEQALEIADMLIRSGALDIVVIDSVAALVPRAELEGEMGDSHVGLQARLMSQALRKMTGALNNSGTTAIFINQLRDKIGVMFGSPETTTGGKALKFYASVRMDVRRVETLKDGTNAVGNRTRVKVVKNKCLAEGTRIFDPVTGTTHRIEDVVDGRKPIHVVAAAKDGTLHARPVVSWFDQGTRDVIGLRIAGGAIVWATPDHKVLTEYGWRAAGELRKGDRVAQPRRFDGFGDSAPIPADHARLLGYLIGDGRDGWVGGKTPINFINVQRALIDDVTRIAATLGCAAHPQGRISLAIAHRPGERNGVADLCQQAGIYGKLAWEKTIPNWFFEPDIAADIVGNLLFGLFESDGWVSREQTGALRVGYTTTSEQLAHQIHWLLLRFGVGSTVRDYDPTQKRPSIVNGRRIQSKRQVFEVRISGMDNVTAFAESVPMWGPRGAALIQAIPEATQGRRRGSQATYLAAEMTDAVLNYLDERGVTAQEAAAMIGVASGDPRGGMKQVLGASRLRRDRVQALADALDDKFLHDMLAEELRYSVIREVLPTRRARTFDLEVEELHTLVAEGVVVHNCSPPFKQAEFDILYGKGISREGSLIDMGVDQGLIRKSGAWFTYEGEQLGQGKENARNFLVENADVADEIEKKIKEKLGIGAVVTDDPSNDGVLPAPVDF

[11] = inhibitors of SNCA 5'UTR-driven reporter translation, confirmation, H4 neuroglioma cells, luminescence (AID 1988); assay type: functional, cell-based
[12] = inhibitors of firefly luciferase expression or activity, dose response, H4 neuroglioma cells, luminescence (AID 1990); assay type: functional, cell-based

Q: Which AC50 [1] does the source give for `O=C(c1cc(-c2ccccc2Cl)on1)N1CCCC1` here?
A: 12.1 µM (active)

Q: And the IC50 [2]?
A: > 39.8 µM (not active)

Q: And the AC50 [3]?
A: > 52 µM (inactive)

Q: And the AC50 [4]?
A: > 52 µM (inactive)

Q: What about the AC50 [5] of the same molecule?
A: 7.48 µM (active)

Q: And the EC50 (cells)?
A: > 67.5 µM (inactive)

Q: What about the EC50 [6] of the same molecule?
A: > 67.5 µM (inactive)

Q: For `Cc1cc2oc(=O)cc(COC(=O)c3[nH]nc4ccccc34)c2cc1C`, which EC50 (Estrogen receptor) is on record?
A: 13.5 µM (active)

Q: With `O=C1C=C(NCCN2CCOCC2)C(=O)c2cnccc21` as the molecule, how does the EC50 [7] read?
A: 6.81 µM (active)

Q: What about the AC50 [8] of the same molecule?
A: 0.979 µM (active)

Q: And the IC50 [9]?
A: 0.512 µM (active)

Q: And the EC50 [10]?
A: 10.4 µM (active)

Q: And the EC50 (Protein RecA)?
A: 0.536 µM (active)

Q: What about the EC50 [11] of the same molecule?
A: 1.88 µM (active)

Q: What about the EC50 [12] of the same molecule?
A: 1.99 µM (active)
